Laboratory results as given in US20220372491A1, “TREATMENT OF RENAL CYSTIC DISEASE” (MONASH UNIVERSITY, priority 2019, published 2022).

Experiments:
[1] = biological target: mTOR (Mus musculus, UniProt P26883+Q9JLN9); details: model not stated; cited from earlier work
[2] = test system: Inpp5e^Δ/Δ mice; test: Oral MK2206 treatment of Inpp5e^Δ/Δ mice; format: in vivo, mouse
Procedure: (§1) MK2206 treatment of Inpp5e^Δ/+ and Inpp5e^Δ/Δ mice commenced at P9 and were performed daily up to P14 before sacrifice at P15.MK2206 treatment of Pkd1 litters commenced at P4 and were performed daily up to P10 before sacrifice at P11. MK2206 was delivered orally by pipette in a solution of 27 mg/ml MK2206.2HCI (S1078, Selleck Chemicals) in 30% Capsitol (Cydex) and 5% glucose (49163-100ML, Sigma-Aldrich). Mice were dosed with a volume to deliver MK2206 up to 75 mg/kg as indicated. Mouse body weights were recorded daily. Solutions were stored at 4 degrees for up to 2 weeks. Mice were culled via cervical dislocation or decapitation, as most appropriate for their age following ethical guidelines. Procedures were all conducted by ethically approved and trained personnel. Mice were measured for body weight, with ear tissue, urine and kidneys collected. Ear tissue and urine was stored at -20 degrees. Newborn and P4 kidneys were fixed whole in 4% PFA for 16 hrs at 4 degrees, while the kidney capsule membrane was removed from older mouse kidneys, with the kidney cut into halves and fixed in 10% NBF for 16 hrs at room temperature. Half the kidney samples were sent for histological processing and the other half were snap frozen and stored at -80 degrees until processed for RNA, alpha analysis and/or western blotting. Kidney tissues were paraffin imbedded and sectioned at 4 μm for most analysis with the exception of being sectioned at 10 μm for cilia analysis. Antigen retrieval was performed in Citrate buffer pH6 using Tefal pressure cooker or using a DAKO […] system as indicated. Antibody staining was performed as described elsewhere (Cottle et al., (2013) Cell reports, 3: 427-441), except triton x-100 was included in blocking buffers, and cover slips mounted using Prolong Gold (Invitrogen). Antibodies and stains are listed below. Imaging was using an Aperio brightfield and fluorescent scanners (MHP), Olympus Fluoview 500 (Biochemistry Imaging Suite), Nikon C2 or Leica SP8 confocal microscope (MMI). All quantifications with the exception of Nanostring analysis and Chi squared tests for analysis of mendelian ratios, were analyzed using the unpaired Student's t-test assuming unequal variance in Microsoft Excel and P≤0.05 values were considered significant. One or two tailed tests were selected as appropriate for hypothesis. Values presented are Mean±Standard Error of the Mean (S.E.M). 2K/BW % was calculated as the combined kidney weight over total body weight percentage. Albumin Creatinine Ratios (ACR) were calculated as μg Albumin over mg of Creatinine. Cyst identity was measured as a proportion of cyst epithelial area for each marker out of total sum of cyst epithelial areas of all markers (adjusted for marker co-localisation). Cystic index % is calculated as the proportion of cystic space occupied out of total kidney area in DBA-stained kidney longitudinal cross-sections. Cyst number reflects the average number of cysts counted per DBA-stained longitudinal kidney cross section. Cyst size is the average cross-sectional cyst size (mm^2) of cysts sampled from DBA-stained kidney longitudinal cross sections. Due to escape of Cre activity at the Aurka locus in cysts, unless otherwise indicated references to Inpp5e^Δ/Δ; Aurka^Δ/Δ immunostains and their quantifications reflect non-cystic regions throughout this study.

[3] = test system: Pkd1^Δ/Δ mice; test: Oral MK2206 treatment of Pkd1^Δ/Δ mice (ADPKD model); format: in vivo, mouse
Procedure: as §1

[4] = oral, daily from P9, sacrificed at P15, vs vehicle
[5] = daily P4 to P10, P11, dose dependent, up to 75 mg/kg

For `CO[C@H]1C[C@@H]2CC[C@@H](C)[C@@](O)(O2)C(=O)C(=O)N2CCCC[C@H]2C(=O)O[C@H]([C@H](C)C[C@@H]2CC[C@@H](OCCO)[C@H](OC)C2)CC(=O)[C@H](C)/C=C(\C)[C@@H](O)[C@@H](OC)C(=O)[C@H](C)C[C@H](C)/C=C/C=C/C=C/1C` [Everolimus], the cyst number [1] is given as “not number” and the cyst size [1] is given as “reduction in cyst size”.
For `NC1(c2ccc(-c3nc4ccn5c(=O)[nH]nc5c4cc3-c3ccccc3)cc2)CCC1` [MK2206], the “% AKT pS473 high collecting duct cells” value ([2]; cystic Inpp5e^Δ/Δ and control mice, Vehicle or MK2206) was “reduces AKT pS473 detection”, the “acquisition of cysts (average cyst number per section)” value [2, 4] was “slowed the acquisition of cysts” and the ciliation [2, 4] was “increased ciliation”. The cyst size [2, 4] was “reduced cyst size”, the cystic index [2, 4] was “reduced the cystic index” and the “kidney size (2K/BW %)” value [2, 4] was “significantly smaller than vehicle treated controls”. The “proportion of AURKA high cells” value [2, 4] was “also reduced”, the “proportion of collecting duct cells with phosphorylated AKT (AKT pT308 high)” value [2, 4] was “reduction in the proportion of collecting duct cells with phosphorylated AKT” and the cyst number [3, 5] was “reducing”. For the same compound, the cyst size [3, 5] was “reducing”, the cystic index [3, 5] was “reducing” and the “kidney to body weight ratio” value [3, 5] was “reducing”. The “severity of PKD” value ([3]; daily P4 to P10, sacrifice at P11, up to 75 mg/kg) was “reduce the severity of PKD in a dose dependent manner”.
